This is an account of results in patent US20110086759A1, “CHEMICAL COMPOUNDS” (SYNGENTA CROP PROTECTION, INC., priority 2007, published 2011).

Common to all, as to assay type: in vivo
Test [1] relates to Alopecurus myosuroides (ALOMY). The test is described as follows: Post-emergence biological efficacy, glasshouse pot test. The note with it: 312 h. In a few lines:
(§1)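 Scored 13 days after spraying on a 0 (no damage) to 100 (total damage) scale. Treatment was a post-emergence spray at 1000 or 250 g/ha, from acetone/water 50:50 plus 0.5% Tween 20, onto 8-day-old plants in soil pots. Growth at 24/16° C, 14 h photoperiod, 65% humidity, watered twice daily.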

The subject of test [2] is Amaranthus retoflexus (AMARE). The description is as above. Particulars: Amaranthus retroflexus, 312 h. In a few lines:
as §1

Test [3] has as its system Ipomea hederaceae (IPOHE). The test is described as above. Particulars: Ipomoea hederacea, 312 h. In a few lines:
as §1

In test [4] the test system is Setaria faberi (SETFA). Described as above. Particulars: 312 h. The procedure, abridged:
as §1

Test [5] has as its system Solanum nigrum (SOLNI). Described as above. Particulars: 312 h. In a few lines:
as §1

Test [6] relates to Echinochloa crus-galli (ECHCG). The description is as above. The note with it: 312 h. The procedure, abridged:
as §1

The subject of test [7] is Alopecurus myosuroides (ALOMY). The test is described as follows: Pre-emergence biological efficacy, glasshouse pot test. Particulars: 312 h. The procedure, abridged: (§2)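 Standard soil, pots, sown then sprayed at day 1 with 1000 or 250 g/ha test compound. Glasshouse: 24/16 °C, 14 h photoperiod, 65% humidity, twice-daily watering. Evaluation day 13, 0–100 damage score.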
The test system of test [8] is Amaranthus retoflexus (AMARE). Described as above. Particulars: Amaranthus retroflexus, 312 h. In a few lines: as §2
For test [9], the system named is Ipomea hederaceae (IPOHE). The description is as above. Particulars: Ipomoea hederacea, 312 h. The procedure, abridged: as §2
Test [10] deals with Setaria faberi (SETFA). Described as above. Particulars: 312 h. In a few lines:
as §2

Test [11] has as its system Solanum nigrum (SOLNI). The test is described as above. The note with it: 312 h. The procedure, abridged: as §2
The subject of test [12] is Echinochloa crus-galli (ECHCG). Described as above. The note with it: 312 h. The procedure, abridged:
as §2

Where [13] appears, read: Rate 1,000 g/ha, post-emergence spray, evaluated after 13 days (100=total damage to plant; 0=no damage to plant), read-out: Percentage damage caused to weed species, post-emergence, ALOMY.
[14] abbreviates: Rate 1,000 g/ha, post-emergence spray, evaluated after 13 days (100=total damage to plant; 0=no damage to plant), read-out: Percentage damage caused to weed species, post-emergence, AMARE.
Setting [15] is: Rate 1,000 g/ha, post-emergence spray, evaluated after 13 days (100=total damage to plant; 0=no damage to plant), read-out: Percentage damage caused to weed species, post-emergence, IPOHE.
Where [16] appears, read: Rate 1,000 g/ha, post-emergence spray, evaluated after 13 days (100=total damage to plant; 0=no damage to plant), read-out: Percentage damage caused to weed species, post-emergence, SETFA.
The mark [17] stands for this setting: Rate 1,000 g/ha, post-emergence spray, evaluated after 13 days (100=total damage to plant; 0=no damage to plant), read-out: Percentage damage caused to weed species, post-emergence, SOLNI.
[18] abbreviates: Rate 1,000 g/ha, post-emergence spray, evaluated after 13 days (100=total damage to plant; 0=no damage to plant), read-out: Percentage damage caused to weed species, post-emergence, ECHCG.
Setting [19] is: pre-emergence, rate 1,000 g/ha, evaluated after 13 days (100=total damage to plant; 0=no damage), read-out: Percentage damage caused to weed species, ALOMY.
[20] abbreviates: pre-emergence, rate 1,000 g/ha, evaluated after 13 days (100=total damage to plant; 0=no damage), read-out: Percentage damage caused to weed species, AMARE.
Where [21] appears, read: pre-emergence, rate 1,000 g/ha, evaluated after 13 days (100=total damage to plant; 0=no damage), read-out: Percentage damage caused to weed species, IPOHE.
[22] abbreviates: pre-emergence, rate 1,000 g/ha, evaluated after 13 days (100=total damage to plant; 0=no damage), read-out: Percentage damage caused to weed species, SETFA.
Where [23] appears, read: pre-emergence, rate 1,000 g/ha, evaluated after 13 days (100=total damage to plant; 0=no damage), read-out: Percentage damage caused to weed species, SOLNI.
The mark [24] stands for this setting: pre-emergence, rate 1,000 g/ha, evaluated after 13 days (100=total damage to plant; 0=no damage), read-out: Percentage damage caused to weed species, ECHCG.
Where [25] appears, read: post-emergence, 1,000 g/ha, evaluated after 13 days (100=total damage; 0=no damage), read-out: Percentage damage caused to weed species, ALOMY.
Where [26] appears, read: post-emergence, 1,000 g/ha, evaluated after 13 days (100=total damage; 0=no damage), read-out: Percentage damage caused to weed species, AMARE.
Where [27] appears, read: post-emergence, 1,000 g/ha, evaluated after 13 days (100=total damage; 0=no damage), read-out: Percentage damage caused to weed species, IPOHE.
Setting [28] is: post-emergence, 1,000 g/ha, evaluated after 13 days (100=total damage; 0=no damage), read-out: Percentage damage caused to weed species, SETFA.
Where [29] appears, read: post-emergence, 1,000 g/ha, evaluated after 13 days (100=total damage; 0=no damage), read-out: Percentage damage caused to weed species, SOLNI.
[30] abbreviates: post-emergence, 1,000 g/ha, evaluated after 13 days (100=total damage; 0=no damage), read-out: Percentage damage caused to weed species, ECHCG.
Setting [31] is: pre-emergence, 1,000 g/ha, evaluated after 13 days (100=total damage; 0=no damage), read-out: Percentage damage ALOMY.
The mark [32] stands for this setting: pre-emergence, 1,000 g/ha, evaluated after 13 days (100=total damage; 0=no damage), read-out: Percentage damage AMARE.
The mark [33] stands for this setting: pre-emergence, 1,000 g/ha, evaluated after 13 days (100=total damage; 0=no damage), read-out: Percentage damage IPOHE.
[34] abbreviates: pre-emergence, 1,000 g/ha, evaluated after 13 days (100=total damage; 0=no damage), read-out: Percentage damage SETFA.
Where [35] appears, read: pre-emergence, 1,000 g/ha, evaluated after 13 days (100=total damage; 0=no damage), read-out: Percentage damage SOLNI.
Where [36] appears, read: pre-emergence, 1,000 g/ha, evaluated after 13 days (100=total damage; 0=no damage), read-out: Percentage damage ECHCG.

For the compound `COC(=O)c1nc(-c2ccc(Cl)c(OC)c2F)nc(NCC2CC2)c1Cl` [Compound 112-43, 5-Chloro-2-(4-chloro-2-fluoro-3-methoxy-phenyl)-4-cyclo-propylmethylamino-6-methoxycarbonyl-pyrimidine], the pest or weed control at 1000 g/ha in test [1] (setting [13]) worked out at 40%; in [2] (setting [14]) it was 100%; in [3] (setting [15]) it was 70%; in the test on Setaria faberi (SETFA) [4] (setting [16]), 80%; in the test on Solanum nigrum (SOLNI) [5] (setting [17]), 90%; in [6] (setting [18]), 80%. In addition, the pest or weed control at 1000 g/ha in test [7] (setting [19]) is 40%; in test [8] (setting [20]), 60%; in test [9] (setting [21]) it was 80%; in the test on Setaria faberi (SETFA) [10] (setting [22]), 30%; in the test with Solanum nigrum (SOLNI) [11] (setting [23]) it was 70%; in test [12] (setting [24]), 60%.

For the compound `COC(=O)c1nc(C2CC2)nc(NC2(/C=C/c3cccc(Cl)c3Cl)CC2)c1Cl` [Compound 4-29, 5-Chloro-2-cyclopropyl-4-{1-[2-(2,3-dichloro-phenyl)ethenyl]-cyclopropylamino}-6-methoxycarbonyl-pyrimidine], the pest or weed control at 1000 g/ha in test [1] (setting [25]) was 10%; in [2] (setting [26]) it was 90%; in test [3] (setting [27]) it was 100%; in the test with Setaria faberi (SETFA) [4] (setting [28]) it was 60%; in the test with Solanum nigrum (SOLNI) [5] (setting [29]) it was 100%; in test [6] (setting [30]), 30%. For the same compound, the pest or weed control at 1000 g/ha in [7] (setting [31]) was found to be 10%; in [8] (setting [32]), 30%; in test [9] (setting [33]) it was 70%; in the test on Setaria faberi (SETFA) [10] (setting [34]), 10%; in the test on Solanum nigrum (SOLNI) [11] (setting [35]), 30%; in [12] (setting [36]) it was 0%.

As for `COC(=O)c1nc(C2CC2)nc(NC2(/C=C/c3ccc(Cl)cc3)CC2)c1Cl` [Compound 4-21, 5-Chloro-4-{1-[2-(4-chlorophenyl)-ethenyl]-cyclopropylamino}-2-cyclopropyl-6-methoxycarbonyl-pyrimidine], the pest or weed control at 1000 g/ha in test [1] (setting [25]) amounted to 20%; in test [2] (setting [26]) it was 100%; in test [3] (setting [27]), 80%; in the test on Setaria faberi (SETFA) [4] (setting [28]), 60%; with Solanum nigrum (SOLNI) [5] (setting [29]), 80%; in [6] (setting [30]), 50%. Besides, the pest or weed control at 1000 g/ha in test [7] (setting [31]) was 0%; in test [8] (setting [32]) it was 20%; in [9] (setting [33]) it was 70%; in the test on Setaria faberi (SETFA) [10] (setting [34]), 0%; in the test with Solanum nigrum (SOLNI) [11] (setting [35]) it was 50%; in [12] (setting [36]), 0%.

On to `COC(=O)c1nc(-c2ccc(Cl)cc2C)nc(NCc2ccco2)c1Cl` [Compound 213-48, 5-Chloro-2-(4-chloro-2-methylphenyl)-4-(furan-2-yl-methyl-amino)-6-methoxy-carbonylpyrimidine], for which the pest or weed control at 1000 g/ha in test [1] (setting [13]) worked out at 0%; in [2] (setting [14]), 100%; in test [3] (setting [15]), 0%; in the test on Setaria faberi (SETFA) [4] (setting [16]) it was 10%; in the test on Solanum nigrum (SOLNI) [5] (setting [17]), 10%; in test [6] (setting [18]) it was 0%. In addition, the pest or weed control at 1000 g/ha in test [7] (setting [19]) was 10%; in [8] (setting [20]) it was 70%; in test [9] (setting [21]), 0%; with Setaria faberi (SETFA) [10] (setting [22]), 10%; in the test with Solanum nigrum (SOLNI) [11] (setting [23]), 0%; in test [12] (setting [24]) it was 0%.

For the compound `COC(=O)c1nc(C2CC2)nc(N(C)Cc2ccccc2Cl)c1Cl` [Compound 5-61, 5-Chloro-4-[N-(2-chlorophenyl-methyl)-N-methyl-amino]-2-cyclopropyl-6-methoxycarbonyl-pyrimidine], the pest or weed control at 1000 g/ha is 20% in [1] (setting [13]); 100% in test [2] (setting [14]); 90% in test [3] (setting [15]); 80% in the test on Setaria faberi (SETFA) [4] (setting [16]); 90% in the test with Solanum nigrum (SOLNI) [5] (setting [17]); 80% in test [6] (setting [18]). Moreover, the pest or weed control at 1000 g/ha in test [7] (setting [19]) worked out at 30%; in [8] (setting [20]) it was 70%; in test [9] (setting [21]), 70%; in the test with Setaria faberi (SETFA) [10] (setting [22]) it was 40%; with Solanum nigrum (SOLNI) [11] (setting [23]), 20%; in test [12] (setting [24]), 40%.

As to `COC(=O)c1nc(C2CC2)nc(N[C@H](C)c2cccc3ccccc23)c1Cl` [4-184 (R), (R)-5-Chloro-2-cyclopropyl-6-methoxycarbonyl-4-[1-(naphth-1-yl)ethylamino]-pyrimidine], the pest or weed control at 1000 g/ha in test [1] (setting [25]) came to 10%; in test [2] (setting [26]), 80%; in [3] (setting [27]), 70%; with Setaria faberi (SETFA) [4] (setting [28]) it was 20%; in the test with Solanum nigrum (SOLNI) [5] (setting [29]), 60%; in [6] (setting [30]), 40%. The pest or weed control at 1000 g/ha (in test [7] (setting [31]); in test [8] (setting [32]); in [9] (setting [33]); in the test with Setaria faberi (SETFA) [10] (setting [34]); with Solanum nigrum (SOLNI) [11] (setting [35]); in test [12] (setting [36])) was 0% in each case.

Regarding `COC(=O)c1nc(C2CC2)nc(N(C)Cc2ccc(F)cc2)c1Cl` [Compound 5-66, 5-Chloro-2-cyclopropyl-4-[N-(4-fluorophenylmethyl)-N-methyl-amino]-6-methoxy-carbonylpyrimidine], the pest or weed control at 1000 g/ha in test [1] (setting [13]) was 20%; in test [2] (setting [14]) it was 100%; in test [3] (setting [15]) it was 100%; in the test on Setaria faberi (SETFA) [4] (setting [16]), 80%; in the test with Solanum nigrum (SOLNI) [5] (setting [17]) it was 90%; in test [6] (setting [18]), 40%. The pest or weed control at 1000 g/ha in test [7] (setting [19]) stood at 30%; in [8] (setting [20]), 100%; in test [9] (setting [21]), 70%; in the test on Setaria faberi (SETFA) [10] (setting [22]), 60%; in the test with Solanum nigrum (SOLNI) [11] (setting [23]), 60%; in test [12] (setting [24]), 40%.
